Like-named read-outs stand apart in the source and are kept apart here.
Tests used:
[1] = target: PI3 kinase alpha (Homo sapiens, UniProt P42336); assay: PI3K ATP depletion assay (Biological Method 1, Assay 3; KinaseGlo luminescence); assay type: biochemical; conditions: ATP depletion assay, read-out: PI3 Kinase Alpha, IC50
Method in brief: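 Compound in DMSO was mixed with 10 nM PI3 kinase and 5 μg/mL phosphatidylinositol, and the reaction was started with 2 μM ATP. It ran to about 50% ATP depletion and was stopped with KinaseGlo.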

[2] = system: pSer473 Akt in A2780 cells; assay: pSer473 Akt assay to monitor PI3K pathway in A2780 cells (Biological Method 2, MSD); assay type: cell-based; conditions: Homo sapiens, inhibition of Akt phosphorylation
Protocol: In this method, an assay for measuring the PI3K-mediated pSer473-Akt status after treatment with representative inhibitor compounds of the invention is described.
A2780 cells were cultured in DMEM supplemented with 10% FBS. L-glutamine, sodium pyruvate, and antibiotics. Cells were plated in the same medium at a density of 15,000 cells per well into 96 well tissue culture plates, with outside wells vacant, and allowed to adhere overnight.
Test compounds supplied in DMSO were diluted further into DMSO at 500 times the desired final concentrations before dilution into culture media to 2 times the final concentrations. Equal volumes of 2× compounds were added to the cells in 96 well plates and incubated at 37° C. for one hour. The media and compounds were then removed, the plates chilled and cells lysed in a lysis buffer (150 mM NaCl, 20 mM Tris pH 7.5, 1 mM EDTA, 1 mM EGTA, 1% Triton X-100) supplemented with phosphatase and protease inhibitors. After thorough mixing, lysates were transferred to both pSer473Akt and total Akt assay plates from Meso Scale Discovery (MSD), and incubated overnight with shaking at 4° C.
The assays were read on a SECTOR Imager 6000 instrument (Meso Scale Discovery). Ratios of the signal from pSer473Akt and total Akt assays were used to correct for any variability and the percent inhibition of pSer473Akt from the total signal seen in cells treated with compound versus DMSO alone was calculated and used to determine EC50 values for each compound.

[3] = system: A2780 ovarian cancer cells; assay: Cellular proliferation in A2780 cells, Cell Titer Glo (Biological Method 4); assay type: cell-based; conditions: Homo sapiens
Method in brief: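 A2780 cells seeded at 1,000/well in DMEM with 10% FBS, at least 2 h before compound, then exposed 72 h at 37 °C, 5% CO2. Viable cells measured by Cell Titer Glo luminescence; EC50 calculated from duplicate conditions.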

[4] = ovarian cancer cell line A2780, Biological Method 4

Chain of PI3 kinase alpha (P42336 whole entry): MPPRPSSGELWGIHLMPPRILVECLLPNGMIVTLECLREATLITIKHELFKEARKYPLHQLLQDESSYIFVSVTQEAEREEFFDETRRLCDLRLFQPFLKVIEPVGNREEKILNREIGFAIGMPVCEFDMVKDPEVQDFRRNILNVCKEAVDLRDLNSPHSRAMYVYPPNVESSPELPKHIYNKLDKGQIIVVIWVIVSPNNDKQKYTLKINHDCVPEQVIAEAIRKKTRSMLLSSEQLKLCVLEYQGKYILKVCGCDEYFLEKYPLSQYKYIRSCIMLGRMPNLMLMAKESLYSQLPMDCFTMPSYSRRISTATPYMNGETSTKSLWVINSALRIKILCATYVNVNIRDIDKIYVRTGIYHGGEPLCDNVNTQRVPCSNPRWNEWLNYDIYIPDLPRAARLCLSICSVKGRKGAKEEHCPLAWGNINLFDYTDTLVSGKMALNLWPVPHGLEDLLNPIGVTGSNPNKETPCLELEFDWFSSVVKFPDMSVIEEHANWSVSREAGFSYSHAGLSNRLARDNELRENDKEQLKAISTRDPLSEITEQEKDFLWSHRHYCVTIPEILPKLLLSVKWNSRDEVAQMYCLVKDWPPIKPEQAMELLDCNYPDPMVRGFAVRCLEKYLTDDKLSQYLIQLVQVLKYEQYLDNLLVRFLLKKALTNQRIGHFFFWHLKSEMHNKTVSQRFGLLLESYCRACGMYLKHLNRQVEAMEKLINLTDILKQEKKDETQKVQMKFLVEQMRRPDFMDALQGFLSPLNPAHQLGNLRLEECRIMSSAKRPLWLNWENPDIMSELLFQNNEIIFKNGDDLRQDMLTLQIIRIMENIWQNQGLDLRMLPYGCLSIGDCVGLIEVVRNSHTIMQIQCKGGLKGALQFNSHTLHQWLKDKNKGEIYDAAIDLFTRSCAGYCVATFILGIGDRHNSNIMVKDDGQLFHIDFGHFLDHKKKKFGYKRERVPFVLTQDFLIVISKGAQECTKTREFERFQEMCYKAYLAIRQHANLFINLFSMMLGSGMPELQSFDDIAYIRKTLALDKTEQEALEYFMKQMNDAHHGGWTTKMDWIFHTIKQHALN
Chain of PI3 kinase alpha (P27986 whole entry partner): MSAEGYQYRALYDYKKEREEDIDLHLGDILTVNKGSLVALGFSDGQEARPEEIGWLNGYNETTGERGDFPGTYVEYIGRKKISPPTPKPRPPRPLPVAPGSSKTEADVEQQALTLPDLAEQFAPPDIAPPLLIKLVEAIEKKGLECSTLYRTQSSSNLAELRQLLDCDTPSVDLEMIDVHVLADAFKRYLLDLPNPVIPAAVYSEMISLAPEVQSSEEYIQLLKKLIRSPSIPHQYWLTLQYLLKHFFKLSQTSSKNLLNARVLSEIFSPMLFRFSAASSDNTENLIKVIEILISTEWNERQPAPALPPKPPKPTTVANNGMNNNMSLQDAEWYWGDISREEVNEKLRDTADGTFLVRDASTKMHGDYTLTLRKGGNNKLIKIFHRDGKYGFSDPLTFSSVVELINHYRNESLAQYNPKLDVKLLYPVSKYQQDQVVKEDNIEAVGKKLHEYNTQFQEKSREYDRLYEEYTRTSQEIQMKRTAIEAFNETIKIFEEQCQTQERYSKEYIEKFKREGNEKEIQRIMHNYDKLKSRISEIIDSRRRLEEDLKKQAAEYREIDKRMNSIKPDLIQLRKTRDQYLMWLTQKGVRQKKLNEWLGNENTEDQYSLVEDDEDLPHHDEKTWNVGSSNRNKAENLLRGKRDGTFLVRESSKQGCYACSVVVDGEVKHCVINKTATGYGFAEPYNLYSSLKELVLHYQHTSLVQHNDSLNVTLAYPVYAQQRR

| IC50 [1] | EC50 ([2]; A2780 cells) | EC50 ([3]; ovarian cancer cell line A2780) | EC50 ([2]; A2780) | IC50 ([1]; Biological Method 1) | EC50 ([2]; A2780, Biological Method 2) | EC50 [3, 4] | Structure (SMILES) |
| --- | --- | --- | --- | --- | --- | --- | --- |
| < 1000 nM | < 1000 nM | < 10000 nM |  |  |  |  | CN1CCC(Oc2ccc(Nc3cc(-c4cnc(N)cc4C(F)(F)F)nc(N4CCOCC4)n3)cn2)CC1 [Compound 116] |
| < 1000 nM | < 1000 nM | < 10000 nM |  |  |  |  | CC(C)N1CC[C@H](Oc2ccc(Nc3cc(-c4cnc(N)cc4C(F)(F)F)nc(N4CCOCC4)n3)cn2)C1 [Compound 188] |
| < 1000 nM | < 1000 nM | < 1000 nM |  |  |  |  | Nc1ncc(-c2cc(OC3CCN(C(=O)c4ccccc4)CC3)nc(N3CCOCC3)n2)c(C(F)(F)F)n1 [Compound 124] |
| < 1000 nM | < 1000 nM | < 10000 nM |  |  |  |  | CC(=O)c1cccc(Nc2cc(-c3ccc(N)nc3)nc(N3CCOCC3)n2)c1 [Compound 174] |
| < 1000 nM | < 1000 nM | < 1000 nM |  |  |  |  | Nc1ncc(-c2cc(Nc3ccncc3C(F)(F)F)nc(N3CCOCC3)n2)c(C(F)(F)F)n1 [Compound 158] |
| < 1000 nM |  | < 1000 nM | < 1000 nM |  |  |  | COc1cc(Nc2cc(-c3cnc(N)cc3C(F)(F)F)nc(N3CCOCC3)n2)ccc1OC1CCN(C(C)C)CC1 [Compound 553] |
|  |  |  |  | < 1000 nM | < 10000 nM | < 1000 nM | CCc1c(Nc2cnc3ccccc3c2)nc(N2CCOCC2)nc1-c1ccc(N)nc1 [Compound 213] |
|  |  |  |  | < 1000 nM | < 10000 nM | < 10000 nM | Cc1c(-c2cnc(N)nc2)nc(N2CCOCC2)nc1-c1ccnc(Nc2ncc(-c3ccccc3)s2)c1 [Compound 215] |
| < 1000 nM | < 1000 nM | < 10000 nM |  |  |  |  | N#Cc1cnc(Nc2cc(-c3cnc(N)cc3C(F)(F)F)nc(N3CCOCC3)n2)s1 [Compound 144] |
| < 1000 nM | < 1000 nM | < 10000 nM |  |  |  |  | CS(=O)(=O)Nc1ccccc1-c1cc(-c2cnc(N)cc2C(F)(F)F)nc(N2CCOCC2)n1 [Compound 159] |
| < 1000 nM | < 1000 nM | < 10000 nM |  |  |  |  | COC(=O)N1CCC[C@H](Oc2cc(-c3cnc(N)nc3N)nc(N3CCOCC3)n2)C1 [Compound 75] |
| < 1000 nM | < 1000 nM | < 1000 nM |  |  |  |  | CC(C)(C)OC(=O)N1CCC(Oc2cc(-c3cnc(N)nc3N)nc(N3CCOCC3)n2)CC1 [Compound 28] |
| < 1000 nM | < 1000 nM | < 1000 nM |  |  |  |  | Cn1cnnc1-c1cccc(Nc2cc(-c3cnc(N)cc3C(F)(F)F)nc(N3CCOCC3)n2)c1 [Compound 171] |
| < 1000 nM | < 1000 nM | < 1000 nM |  |  |  |  | CS(=O)(=O)c1cc(Nc2cc(-c3cnc(N)cc3C(F)(F)F)nc(N3CCOCC3)n2)ccn1 [Compound 90] |
| < 1000 nM | < 1000 nM | < 10000 nM |  |  |  |  | Nc1cc(C(F)(F)F)c(-c2cc(OC3CCN(C(=O)c4ccccc4)CC3)nc(N3CCOCC3)n2)cn1 [Compound 83] |
| < 1000 nM | < 1000 nM | < 10000 nM |  |  |  |  | Nc1ncc(-c2cc(Nc3ccc(F)cc3)nc(N3CCOCC3)n2)cn1 [Compound 123] |
| < 1000 nM | < 1000 nM | < 1000 nM |  |  |  |  | Nc1ncc(-c2cc(OC3CCN(C(=O)OCc4ccccc4)CC3)nc(N3CCOCC3)n2)c(=O)[nH]1 [Compound 34] |
| < 1000 nM | < 1000 nM | < 1000 nM |  |  |  |  | COC(=O)N1CCC(Oc2cc(-c3cnc(N)nc3N)nc(N3CCOCC3)n2)CC1 [Compound 81] |
| < 1000 nM | < 1000 nM | < 1000 nM |  |  |  |  | Nc1ncc(-c2cc(O[C@H]3CCOC3)nc(N3CCOCC3)n2)c(=O)[nH]1 [Compound 39] |
| < 1000 nM | < 1000 nM | < 1000 nM |  |  |  |  | Nc1ncc(-c2cc(O[C@@H]3CCOC3)nc(N3CCOCC3)n2)c(N)n1 [Compound 108] |
| < 1000 nM | < 1000 nM | < 10000 nM |  |  |  |  | CS(=O)(=O)c1ccnc(Nc2cc(-c3cnc(N)cc3C(F)(F)F)nc(N3CCOCC3)n2)c1 [Compound 109] |
| < 1000 nM | < 1000 nM | < 10000 nM |  |  |  |  | CC(=O)c1ccccc1Nc1cc(-c2ccc(N)nc2)nc(N2CCOCC2)n1 [Compound 172] |
|  |  |  |  | < 1000 nM | < 10000 nM | < 10000 nM | Nc1cc(C(F)(F)F)c(-c2cc(N3CCOc4ccccc43)nc(N3CCOCC3)n2)cn1 [Compound 210] |
| < 1000 nM | < 1000 nM | < 10000 nM |  |  |  |  | NC(=O)c1cccc(Nc2cc(-c3ccc(N)nc3)nc(N3CCOCC3)n2)c1 [Compound 166] |

| IC50 [1] | EC50 ([2]; A2780 cells) | EC50 ([3]; ovarian cancer cell line A2780) | EC50 ([2]; A2780) | IC50 ([1]; Biological Method 1) | EC50 ([2]; A2780, Biological Method 2) | EC50 [3, 4] | Structure (SMILES) |
| --- | --- | --- | --- | --- | --- | --- | --- |
| < 1000 nM | < 1000 nM | < 1000 nM |  |  |  |  | COC(=O)N1CCC(Oc2cc(-c3cnc(N)nc3C(F)(F)F)nc(N3CCOCC3)n2)CC1 [Compound 70] |
|  |  |  |  | < 1000 nM | < 10000 nM | < 1000 nM | Nc1cc(C(F)(F)F)c(-c2cc(Nc3cccc(S(=O)(=O)N4CCCCC4)c3)nc(N3CCOCC3)n2)cn1 [Compound 207] |
| < 1000 nM |  | < 10000 nM | < 1000 nM |  |  |  | CC(C)N1CCC(Oc2ccc(Nc3cc(-c4cnc(N)cc4C(F)(F)F)nc(N4CCOCC4)n3)cc2)CC1 [Compound 552] |
| < 1000 nM | < 1000 nM | < 1000 nM |  |  |  |  | CN1CCC(Oc2ccc(Nc3cc(-c4cnc(N)nc4)nc(N4CCOCC4)n3)cn2)C1 (stereo not drawn) [Compound 35] |
| < 1000 nM | < 1000 nM | < 10000 nM |  |  |  |  | Nc1ncc(-c2cc(O[C@H]3CCCN(C(=O)OC4CCCC4)C3)nc(N3CCOCC3)n2)c(N)n1 [Compound 186] |
| < 1000 nM | < 1000 nM | < 10000 nM |  |  |  |  | CC(C)OC(=O)N1CCC(Oc2cc(-c3cnc(N)nc3C(F)(F)F)nc(N3CCOCC3)n2)CC1 [Compound 115] |
| < 1000 nM | < 1000 nM | < 10000 nM |  |  |  |  | CS(=O)(=O)N1CCC[C@@H](Oc2cc(-c3cnc(N)nc3N)nc(N3CCOCC3)n2)C1 [Compound 127] |
| < 1000 nM | < 1000 nM | < 1000 nM |  |  |  |  | Nc1ncc(-c2cc(Nc3ccc4cn[nH]c4c3)nc(N3CCOCC3)n2)cn1 [Compound 135] |
| < 1000 nM | < 1000 nM | < 10000 nM |  |  |  |  | CS(=O)(=O)Nc1ncccc1-c1cc(-c2cnc(N)cc2C(F)(F)F)nc(N2CCOCC2)n1 [Compound 145] |
| < 1000 nM | < 1000 nM | < 1000 nM |  |  |  |  | CN1CCN(c2ccc(Nc3cc(-c4cnc(N)nc4)nc(N4CCOCC4)n3)cn2)CC1 [Compound 51] |
| < 1000 nM | < 1000 nM | < 10000 nM |  |  |  |  | Nc1ccc(-c2cc(Nc3ccnc(Cl)c3)nc(N3CCOCC3)n2)cn1 [Compound 155] |
|  |  |  |  | < 1000 nM | < 10000 nM | < 25000 nM | CS(=O)(=O)c1ccc(Nc2cc(-c3cnc(N)[nH]c3=O)nc(N3CCOCC3)n2)cn1 [Compound 208] |
| < 1000 nM | < 1000 nM | < 10000 nM |  |  |  |  | COc1ccc(Nc2cc(-c3cnc(N)nc3N)nc(N3CCOCC3)n2)cn1 [Compound 73] |
| < 1000 nM | < 1000 nM | < 1000 nM |  |  |  |  | CC(C)N1CCC(Oc2ccc(Nc3cc(-c4cnc(N)nc4N)nc(N4CCOCC4)n3)cn2)CC1 [Compound 68] |
| < 1000 nM | < 1000 nM | < 1000 nM |  |  |  |  | Nc1ncc(-c2cc(OC3CCN(C(=O)c4ccccc4)CC3)nc(N3CCOCC3)n2)c(N)n1 [Compound 122] |
| < 1000 nM | < 1000 nM | < 1000 nM |  |  |  |  | Nc1ncc(-c2cc(Nc3ccncc3)nc(N3CCOCC3)n2)c(C(F)(F)F)n1 [Compound 33] |
| < 1000 nM | < 1000 nM | < 1000 nM |  |  |  |  | CS(=O)(=O)c1cccc(-c2cc(-c3cnc(N)nc3C(F)(F)F)nc(N3CCOCC3)n2)c1 [Compound 143] |
| < 1000 nM | < 1000 nM | < 1000 nM |  |  |  |  | CS(=O)(=O)c1cccc(-c2cc(-c3cnc(N)cc3Cl)nc(N3CCOCC3)n2)c1 [Compound 165] |
| < 1000 nM | < 1000 nM | < 1000 nM |  |  |  |  | CS(=O)(=O)N1CCC(Oc2cc(-c3cnc(N)[nH]c3=O)nc(N3CCOCC3)n2)CC1 [Compound 58] |
| < 1000 nM | < 1000 nM | < 10000 nM |  |  |  |  | N#Cc1cnccc1Nc1cc(-c2ccc(N)nc2)nc(N2CCOCC2)n1 [Compound 191] |
| < 1000 nM | < 1000 nM | < 1000 nM |  |  |  |  | Nc1cc(C(F)(F)F)c(-c2cc(Nc3ccncc3C(F)(F)F)nc(N3CCOCC3)n2)cn1 [Compound 153] |
| < 1000 nM | < 1000 nM | < 1000 nM |  |  |  |  | CCN(CC)Cc1cnc(Nc2cc(-c3cnc(N)nc3C(F)(F)F)nc(N3CCOCC3)n2)s1 [Compound 40] |
| < 1000 nM | < 1000 nM | < 1000 nM |  |  |  |  | Nc1ccc(-c2cc(Nc3cnc4ccccc4c3)nc(N3CCOCC3)n2)c(Cl)n1 [Compound 195] |
